Experimental data as given in patent US20250137054A1, “COMPOSITION AND METHOD FOR EVALUATING RESPONSIVENESS OF EDARAVONE” (MITSUBISHI TANABE PHARMA CORPORATION, priority 2022, published 2025).

System: TDP-43 in healthy individual-derived neurons
Experiment: TDP-43 localization evaluation, healthy individual-derived neurons
Type: cell-based, human
Details: edaravone treatment, DMSO group = 100 (FIG. 15)
Source text: Human induced pluripotent stem (iPS) cells were induced from cells derived from an ALS patient and cells derived from a healthy individual using a conventional method. The cells derived from the ALS patient were used that are known to have an ALS risk mutation as a heterozygous mutation in the TARDBP gene. Each iPS cell was differentiated into a motor neuron (hereinafter, also simply referred to as a “neuron”) using a conventional method. […]
Intracellular localization of TDP-43 polypeptides was evaluated by immunofluorescence staining of neurons. […] After further nuclear staining, washing with PBS, and imaging under a fluorescence microscope were performed. The captured images were analyzed using Matlab (Mathworks), and fluorescence intensities of TDP-43 in a nuclear region and in a cytoplasmic region were respectively calculated. […]
Regarding the intracellular localization of TDP-43 polypeptides, the nuclear and cytoplasmic TDP-43 fluorescence intensities and the cytoplasmic/nuclear TDP-43 intensity ratios in ALS cells and healthy cells are shown in FIG. 15. […]

CC1=NN(c2ccccc2)C(=O)C1 [edaravone, 5-methyl-2-phenyl-2,4-dihydro-3H-pyrazol-3-one] was tested, and the “effect of decreasing the cytoplasmic/nuclear TDP-43 intensity ratio” value was “not observed”.
